Measured values from ChEMBL document CHEMBL5723588, “Data for DCP probe JNJ-3738” (2024).
Calls of active or inactive are those of the source. The calls are words filed in the database; no cut-off is given here.

How the values were obtained:
[1] = biological target: Cyclin-dependent kinase 15 (Homo sapiens) (UniProt Q96Q40); assay: % inhibition of CDK15 in the DiscoverX Kinase panel at 1.0 µM; details: Compound concentration 1.0 uM
[2] = biological target: Cyclin-dependent kinase 2 (Homo sapiens) (UniProt P24941); assay: % inhibition of CDK2 in the DiscoverX Kinase panel at 1.0 µM; details: Compound concentration 1.0 uM
[3] = biological target: Cyclin-dependent kinase 18 (Homo sapiens) (UniProt Q07002); assay: % inhibition of CDK18 in the DiscoverX Kinase panel at 1.0 µM; details: Compound concentration 1.0 uM
[4] = biological target: Cyclin-dependent kinase 16 (Homo sapiens) (UniProt Q00536); assay: % inhibition of CDK16 in the DiscoverX Kinase panel at 1.0 µM; details: Compound concentration 1.0 uM
[5] = biological target: Cyclin-dependent kinase 5 (Homo sapiens) (UniProt Q00535); assay: % inhibition of CDK5 in the DiscoverX Kinase panel at 1.0 µM; details: Compound concentration 1.0 uM
[6] = biological target: Cyclin-dependent kinase 8 (Homo sapiens) (UniProt P49336); assay: % inhibition of CDK8 in the DiscoverX Kinase panel at 1.0 µM; details: Compound concentration 1.0 uM
[7] = biological target: Cyclin-dependent kinase 16 (Homo sapiens) (UniProt Q00536); assay: Inhibition of CDK16 at 1.0 µM in the ActivX; details: Compound concentration 1.0 uM
[8] = biological target: T1, Cyclin-dependent kinase 11A/B (Homo sapiens) (UniProt Q9UQ88+P21127); assay: % inhibition of CDK11 in the DiscoverX Kinase panel at 1.0 µM; format: protein assay; details: Compound concentration 1.0 uM
[9] = biological target: T2, CDK7/Cyclin H/MNAT1 (Homo sapiens) (UniProt P51946+P50613+P51948); assay: (§1) Biochemical CDK7 assay (KIapp) ( CDK7 catalyzed, ATP-dependent, phosphorylation of a peptide substrate derived from RNA Pol II (CDK7/9-tide). Coupled via lactate dehydrogenase (LDH) and pyruvate kinase (PK) to lactate and NAD+ production, with concomitant depletion of NADH. Continuous coupled assay measures CDK7 catalytic activity through the diminished absorbance intensity at 340 nm that corresponds with NADH depletion.); format: functional
[10] = biological target: Cyclin-dependent kinase 6 (Homo sapiens) (UniProt Q00534); assay: Inhibition of CDK6 at 1.0 µM in the ActivX; details: Compound concentration 1.0 uM
[11] = biological target: Cyclin-dependent kinase 14 (Homo sapiens) (UniProt O94921); assay: Inhibition of CDK14 at 1.0 µM in the ActivX; details: Compound concentration 1.0 uM
[12] = biological target: Cyclin-dependent kinase 11B (Homo sapiens) (UniProt P21127); assay: % inhibition of CDK11b in the DiscoverX Kinase panel at 1.0 µM; details: Compound concentration 1.0 uM
[13] = biological target: T3, Cyclin-dependent kinase 7 (Homo sapiens, UniProt P50613); assay: (§2) In vitro pharmacodynamics: p-RNA pol II Ser-5 (wtCDK7) ( QuantiGene Plex Gene Expression Assay: downregulation at the messenger level of superenhancer driven genes. The level of phosphorylation of Serine 5 on RNA pol II Vs totalRNA pol II is determined. The level of p-RNA pol II Ser-5 detected and stained with primary (a specific rabbit Phospho-Rpb1 CTD (Ser5) antibody) and secondary antibodies (a goat anti rabbit Alexa Fluor 488 conjugated secondary antibody) after 3 hrs incubation with probe.); format: functional
[14] = biological target: Cyclin-dependent kinase 14 (Homo sapiens) (UniProt O94921); assay: % inhibition of CDK14 in the DiscoverX Kinase panel at 1.0 µM; details: Compound concentration 1.0 uM
[15] = biological target: Cyclin-dependent kinase 20 (Homo sapiens) (UniProt Q8IZL9); assay: Inhibition of CDK20 at 1.0 µM in the ActivX; details: Compound concentration 1.0 uM
[16] = biological target: T4, Cyclin-dependent kinase 9 (Homo sapiens, UniProt P50750); assay: Inhibition of CDK9 at 1.0 µM in the ActivX; details: Compound concentration 1.0 uM
[17] = biological target: Cyclin-dependent kinase 15 (Homo sapiens) (UniProt Q96Q40); assay: Inhibition of CDK15 at 1.0 µM in the ActivX; details: Compound concentration 1.0 uM
[18] = biological target: Cyclin-dependent kinase 8 (Homo sapiens) (UniProt P49336); assay: Inhibition of CDK8 at 1.0 µM in the ActivX; details: Compound concentration 1.0 uM
[19] = biological target: Cyclin-dependent kinase 18 (Homo sapiens) (UniProt Q07002); assay: Inhibition of CDK18 at 1.0 µM in the ActivX; details: Compound concentration 1.0 uM
[20] = biological target: Cyclin-dependent kinase 1 (Homo sapiens) (UniProt P06493); assay: Inhibition of CDK1 at 1.0 µM in the ActivX; details: Compound concentration 1.0 uM
[21] = biological target: T3, Cyclin-dependent kinase 7; assay: Inhibition of CDK7 at 1.0 µM in the ActivX; details: Compound concentration 1.0 uM
[22] = biological target: Cyclin-dependent kinase 17 (Homo sapiens) (UniProt Q00537); assay: % inhibition of CDK17 in the DiscoverX Kinase panel at 1.0 µM; details: Compound concentration 1.0 uM
[23] = biological target: Cyclin-dependent kinase 4 (Homo sapiens) (UniProt P11802); assay: Inhibition of CDK4 at 1.0 µM in the ActivX; details: Compound concentration 1.0 uM
[24] = biological target: Cyclin-dependent kinase 12 (Homo sapiens) (UniProt Q9NYV4); assay: Inhibition of CDK12 at 1.0 µM in the ActivX; details: Compound concentration 1.0 uM
[25] = biological target: Cyclin-dependent kinase 2 (Homo sapiens) (UniProt P24941); assay: Inhibition of CDK2 at 1.0 µM in the ActivX; details: Compound concentration 1.0 uM
[26] = biological target: Serine/threonine-protein kinase 16 (Homo sapiens) (UniProt O75716); assay: Inhibition of MPSK1 at 1.0 µM in the ActivX; details: Compound concentration 1.0 uM
[27] = biological target: Cyclin-dependent kinase 5 (Homo sapiens) (UniProt Q00535); assay: Inhibition of CDK5 at 1.0 µM in the ActivX; details: Compound concentration 1.0 uM
[28] = biological target: Cyclin-dependent kinase 11B (Homo sapiens) (UniProt P21127); assay: Inhibition of CDK11b at 1.0 µM in the ActivX; details: Compound concentration 1.0 uM
[29] = biological target: Cyclin-dependent kinase 13 (Homo sapiens) (UniProt Q14004); assay: Inhibition of CDK13 at 1.0 µM in the ActivX; details: Compound concentration 1.0 uM
[30] = biological target: Cyclin-dependent kinase 4 (Homo sapiens) (UniProt P11802); assay: % inhibition of CDK4 in the DiscoverX Kinase panel at 1.0 µM; details: Compound concentration 1.0 uM
[31] = biological target: Calcium/calmodulin-dependent protein kinase kinase 2 (Homo sapiens) (UniProt Q96RR4); assay: Inhibition of CAMKK2 at 1.0 µM in the ActivX; details: Compound concentration 1.0 uM
[32] = biological target: T3, Cyclin-dependent kinase 7; assay: % inhibition of CDK7 in the DiscoverX Kinase panel at 1.0 µM
[33] = biological target: Cyclin-dependent kinase 10 (Homo sapiens) (UniProt Q15131); assay: Inhibition of CDK10 at 1.0 µM in the ActivX; details: Compound concentration 1.0 uM
[34] = biological target: T1, Cyclin-dependent kinase 11A/B (Homo sapiens); assay: Inhibition of CDK11 at 1.0 µM in the ActivX; format: protein assay; details: Compound concentration 1.0 uM
[35] = biological target: T4, Cyclin-dependent kinase 9; assay: % inhibition of CDK9 in the DiscoverX Kinase panel at 1.0 µM
[36] = biological target: Cyclin-dependent kinase 13 (Homo sapiens) (UniProt Q14004); assay: % inhibition of CDK13 in the DiscoverX Kinase panel at 1.0 µM; details: Compound concentration 1.0 uM
[37] = biological target: Cyclin-dependent kinase 7 (Homo sapiens, UniProt P50613, C312S); assay: as §2, with “(CDK7 C312S)” for “(wtCDK7)”; format: functional
[38] = biological target: T2, CDK7/Cyclin H/MNAT1 (Homo sapiens); assay: as §1, with “(kinact/KIapp)” for “(KIapp)”; format: functional
[39] = biological target: Cyclin-dependent kinase 17 (Homo sapiens) (UniProt Q00537); assay: Inhibition of CDK17 at 1.0 µM in the ActivX; details: Compound concentration 1.0 uM
[40] = biological target: Cyclin-dependent kinase 3 (Homo sapiens) (UniProt Q00526); assay: % inhibition of CDK3 in the DiscoverX Kinase panel at 1.0 µM; details: Compound concentration 1.0 uM
[41] = biological target: T3, Cyclin-dependent kinase 7; assay: Fluorescent end-point assay ( KM ATP app ~30 µM); format: functional

T3 sequence (P50613 whole entry): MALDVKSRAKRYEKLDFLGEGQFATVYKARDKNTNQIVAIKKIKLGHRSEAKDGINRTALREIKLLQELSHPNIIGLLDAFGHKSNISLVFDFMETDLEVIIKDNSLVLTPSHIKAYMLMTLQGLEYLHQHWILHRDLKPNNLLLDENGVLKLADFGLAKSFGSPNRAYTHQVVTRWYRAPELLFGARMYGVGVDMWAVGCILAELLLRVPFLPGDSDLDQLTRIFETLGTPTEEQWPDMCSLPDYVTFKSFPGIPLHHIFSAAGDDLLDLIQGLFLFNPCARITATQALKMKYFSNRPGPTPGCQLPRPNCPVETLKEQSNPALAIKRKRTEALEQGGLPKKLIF
T4 sequence (P50750 whole entry): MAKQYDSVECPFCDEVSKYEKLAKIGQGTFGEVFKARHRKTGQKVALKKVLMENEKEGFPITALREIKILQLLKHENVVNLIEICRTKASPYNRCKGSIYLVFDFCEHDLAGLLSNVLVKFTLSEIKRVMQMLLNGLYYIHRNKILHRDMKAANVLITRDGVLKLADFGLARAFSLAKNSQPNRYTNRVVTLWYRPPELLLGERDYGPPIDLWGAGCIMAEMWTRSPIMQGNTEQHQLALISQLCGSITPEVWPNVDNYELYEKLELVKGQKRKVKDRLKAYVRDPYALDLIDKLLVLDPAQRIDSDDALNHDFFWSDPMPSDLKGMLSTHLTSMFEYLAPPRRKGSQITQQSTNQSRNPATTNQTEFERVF
Chain of Cyclin-dependent kinase 13 (Homo sapiens) (Q14004 whole entry, looked up): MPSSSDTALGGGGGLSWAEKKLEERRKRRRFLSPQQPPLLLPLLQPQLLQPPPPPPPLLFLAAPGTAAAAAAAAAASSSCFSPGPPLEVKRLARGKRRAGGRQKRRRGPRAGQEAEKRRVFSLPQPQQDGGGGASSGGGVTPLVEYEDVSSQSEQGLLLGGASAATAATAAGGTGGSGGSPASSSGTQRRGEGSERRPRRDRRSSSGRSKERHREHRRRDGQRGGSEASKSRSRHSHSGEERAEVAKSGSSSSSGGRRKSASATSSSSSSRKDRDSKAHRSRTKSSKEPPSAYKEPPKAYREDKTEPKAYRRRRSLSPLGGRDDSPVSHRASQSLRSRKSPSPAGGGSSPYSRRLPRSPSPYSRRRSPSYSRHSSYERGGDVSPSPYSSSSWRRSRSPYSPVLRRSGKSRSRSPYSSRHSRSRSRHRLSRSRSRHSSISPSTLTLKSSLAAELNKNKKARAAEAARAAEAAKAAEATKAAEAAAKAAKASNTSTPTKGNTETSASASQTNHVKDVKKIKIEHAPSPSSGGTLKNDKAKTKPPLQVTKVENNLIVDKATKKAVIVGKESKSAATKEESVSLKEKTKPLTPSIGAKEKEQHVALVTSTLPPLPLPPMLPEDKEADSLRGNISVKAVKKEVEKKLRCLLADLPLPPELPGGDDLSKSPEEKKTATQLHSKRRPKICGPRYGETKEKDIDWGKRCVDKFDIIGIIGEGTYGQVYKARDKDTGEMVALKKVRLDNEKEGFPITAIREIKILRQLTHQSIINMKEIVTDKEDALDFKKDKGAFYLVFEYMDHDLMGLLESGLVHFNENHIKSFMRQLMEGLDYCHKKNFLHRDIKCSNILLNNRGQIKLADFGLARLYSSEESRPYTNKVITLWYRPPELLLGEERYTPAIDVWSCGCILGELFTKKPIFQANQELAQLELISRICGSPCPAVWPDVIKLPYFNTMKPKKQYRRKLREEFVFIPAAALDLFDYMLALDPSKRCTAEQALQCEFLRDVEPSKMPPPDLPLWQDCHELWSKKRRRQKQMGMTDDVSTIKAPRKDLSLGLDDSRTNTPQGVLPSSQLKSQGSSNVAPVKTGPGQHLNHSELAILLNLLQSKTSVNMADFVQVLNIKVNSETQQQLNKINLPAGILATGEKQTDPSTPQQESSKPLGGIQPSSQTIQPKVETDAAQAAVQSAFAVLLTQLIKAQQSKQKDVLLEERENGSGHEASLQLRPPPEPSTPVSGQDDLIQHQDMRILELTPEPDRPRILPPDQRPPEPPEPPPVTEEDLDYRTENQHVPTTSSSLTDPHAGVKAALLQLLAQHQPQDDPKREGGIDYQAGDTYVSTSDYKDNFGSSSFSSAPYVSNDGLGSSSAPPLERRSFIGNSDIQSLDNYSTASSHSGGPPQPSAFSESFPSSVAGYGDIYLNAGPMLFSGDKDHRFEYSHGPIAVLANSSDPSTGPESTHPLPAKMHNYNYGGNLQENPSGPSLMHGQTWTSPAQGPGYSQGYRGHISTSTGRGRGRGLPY
Chain of Cyclin-dependent kinase 8 (Homo sapiens) (P49336 whole entry): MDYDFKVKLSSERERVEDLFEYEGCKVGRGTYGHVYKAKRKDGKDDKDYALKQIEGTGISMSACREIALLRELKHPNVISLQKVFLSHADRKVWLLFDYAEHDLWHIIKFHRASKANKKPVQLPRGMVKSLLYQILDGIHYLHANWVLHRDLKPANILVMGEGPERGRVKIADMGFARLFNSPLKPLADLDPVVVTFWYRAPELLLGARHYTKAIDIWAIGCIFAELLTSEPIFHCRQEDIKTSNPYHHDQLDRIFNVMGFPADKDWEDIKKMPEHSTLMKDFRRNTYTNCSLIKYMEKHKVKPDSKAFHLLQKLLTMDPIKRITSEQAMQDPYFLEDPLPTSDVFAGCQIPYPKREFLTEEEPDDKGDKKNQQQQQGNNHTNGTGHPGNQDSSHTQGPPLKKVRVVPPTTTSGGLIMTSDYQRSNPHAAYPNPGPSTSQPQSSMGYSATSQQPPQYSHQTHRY
Chain of Cyclin-dependent kinase 15 (Homo sapiens) (Q96Q40 whole entry): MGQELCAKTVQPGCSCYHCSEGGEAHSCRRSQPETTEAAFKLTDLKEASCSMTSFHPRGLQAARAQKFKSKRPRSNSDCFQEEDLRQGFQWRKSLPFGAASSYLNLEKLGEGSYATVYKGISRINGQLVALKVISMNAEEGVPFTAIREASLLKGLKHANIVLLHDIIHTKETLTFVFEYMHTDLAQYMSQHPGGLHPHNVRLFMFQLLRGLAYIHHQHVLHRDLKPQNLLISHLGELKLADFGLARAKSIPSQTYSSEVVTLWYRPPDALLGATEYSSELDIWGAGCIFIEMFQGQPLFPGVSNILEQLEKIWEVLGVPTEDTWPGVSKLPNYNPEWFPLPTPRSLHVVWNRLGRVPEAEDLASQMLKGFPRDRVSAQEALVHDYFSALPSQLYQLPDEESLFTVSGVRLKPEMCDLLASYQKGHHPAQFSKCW
Chain of Cyclin-dependent kinase 11B (Homo sapiens) (P21127 whole entry): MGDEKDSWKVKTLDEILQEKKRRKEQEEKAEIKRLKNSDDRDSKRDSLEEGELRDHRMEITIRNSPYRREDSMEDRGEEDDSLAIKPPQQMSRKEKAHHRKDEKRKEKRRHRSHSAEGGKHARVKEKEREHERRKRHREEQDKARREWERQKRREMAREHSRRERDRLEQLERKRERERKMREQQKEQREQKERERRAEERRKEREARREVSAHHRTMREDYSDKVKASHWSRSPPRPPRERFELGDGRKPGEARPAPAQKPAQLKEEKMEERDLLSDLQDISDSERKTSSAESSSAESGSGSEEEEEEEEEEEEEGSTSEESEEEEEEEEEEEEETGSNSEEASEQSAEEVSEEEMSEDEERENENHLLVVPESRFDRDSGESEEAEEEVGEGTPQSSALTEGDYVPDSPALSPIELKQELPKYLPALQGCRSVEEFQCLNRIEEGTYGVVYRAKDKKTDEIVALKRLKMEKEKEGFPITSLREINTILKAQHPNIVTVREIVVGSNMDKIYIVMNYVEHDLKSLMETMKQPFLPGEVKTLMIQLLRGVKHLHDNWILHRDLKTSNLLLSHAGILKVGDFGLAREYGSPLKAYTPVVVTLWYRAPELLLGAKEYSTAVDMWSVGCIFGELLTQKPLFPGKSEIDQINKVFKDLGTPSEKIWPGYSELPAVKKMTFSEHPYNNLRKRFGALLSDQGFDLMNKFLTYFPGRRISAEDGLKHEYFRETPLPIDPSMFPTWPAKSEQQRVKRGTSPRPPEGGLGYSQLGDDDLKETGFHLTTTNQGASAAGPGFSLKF
T1 sequence (P21127 whole entry, looked up): as the sequence (P21127 whole entry) above
T1 sequence (Q9UQ88 whole entry, looked up): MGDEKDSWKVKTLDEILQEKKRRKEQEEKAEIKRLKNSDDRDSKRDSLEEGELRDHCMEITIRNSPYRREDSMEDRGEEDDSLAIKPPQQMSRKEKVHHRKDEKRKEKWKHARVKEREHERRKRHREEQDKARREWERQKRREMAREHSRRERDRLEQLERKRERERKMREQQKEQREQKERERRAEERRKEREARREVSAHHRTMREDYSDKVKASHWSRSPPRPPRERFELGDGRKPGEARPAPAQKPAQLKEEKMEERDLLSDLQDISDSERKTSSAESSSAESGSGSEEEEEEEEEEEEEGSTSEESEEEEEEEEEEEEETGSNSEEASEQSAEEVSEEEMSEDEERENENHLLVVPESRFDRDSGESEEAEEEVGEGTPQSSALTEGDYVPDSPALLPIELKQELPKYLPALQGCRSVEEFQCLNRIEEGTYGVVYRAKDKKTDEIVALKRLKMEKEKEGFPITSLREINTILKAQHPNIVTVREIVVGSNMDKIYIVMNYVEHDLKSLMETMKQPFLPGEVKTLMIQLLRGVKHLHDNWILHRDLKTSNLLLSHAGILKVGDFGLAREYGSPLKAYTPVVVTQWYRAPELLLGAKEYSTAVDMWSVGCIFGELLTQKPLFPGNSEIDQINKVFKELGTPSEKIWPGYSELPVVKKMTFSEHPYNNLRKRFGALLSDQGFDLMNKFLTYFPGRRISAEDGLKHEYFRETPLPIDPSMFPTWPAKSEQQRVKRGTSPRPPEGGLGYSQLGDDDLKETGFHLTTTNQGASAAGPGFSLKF
Chain of Cyclin-dependent kinase 5 (Homo sapiens) (Q00535 whole entry, looked up): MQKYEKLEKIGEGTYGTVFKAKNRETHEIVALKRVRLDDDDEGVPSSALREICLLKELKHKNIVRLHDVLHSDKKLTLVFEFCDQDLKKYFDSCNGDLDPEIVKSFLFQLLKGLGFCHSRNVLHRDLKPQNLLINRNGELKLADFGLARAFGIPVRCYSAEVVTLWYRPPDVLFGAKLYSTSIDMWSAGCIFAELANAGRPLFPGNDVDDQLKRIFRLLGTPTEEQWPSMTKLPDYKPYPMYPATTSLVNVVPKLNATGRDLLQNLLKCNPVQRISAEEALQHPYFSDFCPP

CC#CC(=O)N1CC(N2CCC(c3cc(C)c4c(c3)Nc3ncnc(N5CCS(=O)(=O)CC5)c3[C@@H](C)O4)CC2)C1
inhibition [1]: 21% | inhibition [2]: 10% | inhibition [3]: 25% | inhibition [4]: 5% | inhibition [5]: 5% | inhibition [6]: > 2% | inhibition [7]: 1% | inhibition [8]: 11% | KIapp [9]: 31 nM | inhibition [10]: 0% | inhibition [11]: 11% | inhibition [12]: 0% | IC50 [13]: 58 nM (active) | inhibition [14]: 5% | inhibition [15]: 5% | inhibition [16]: 45% | inhibition [17]: 15% | inhibition [18]: 7% | inhibition [19]: 19% | inhibition [20]: 11% | inhibition [21]: 95% | inhibition [22]: 2% | inhibition [23]: 0% | inhibition [24]: 11% | inhibition [25]: 6% | inhibition [26]: 65% | inhibition [27]: 2% | inhibition [28]: 5% | inhibition [29]: 13% | inhibition [30]: 10% | inhibition [31]: 70% | IC50 [32]: 3.8 nM | inhibition ([32]; Compound concentration 1.0 uM): 99% | inhibition [33]: 3% | inhibition [34]: 7% | IC50 [35]: 933 nM | inhibition ([35]; Compound concentration 1.0 uM): 36% | inhibition [36]: 12% | IC50 [37]: > 10000 nM (not active) | kinact/KIapp [38]: 2600 M⁻¹ s⁻¹ | inhibition [39]: 17% | inhibition [40]: 14%

CC(=O)N1CC(N2CCC(c3cc(C)c4c(c3)Nc3ncnc(N5CCS(=O)(=O)CC5)c3[C@@H](C)O4)CC2)C1
IC50 [41]: ~200 nM (not active) | IC50 [13]: > 10000 nM (not active) | IC50 [37]: > 10000 nM (not active)
